Patent publication US20210255193A1, “LYSINE REACTIVE PROBES AND USES THEREOF” (The Scripps Research Institute, priority 2017, published 2021)

Legend:
[1] = molecular target: T1, CNOT4 CCR4-NOT transcription complex subunit 4 (Homo sapiens, UniProt O95628); test: competitive isoTOP-ABPP; format: binding; conditions: for isoTOP-ABPP ratio (R) at liganded lysine O95628_K134: sol, 231
T1 construct: isoTOP-ABPP experiments performed in cell lysates (in vitro); endogenous in cells; host or cells: MDA-MB-231 soluble lysate
T1 sequence (O95628 1-575): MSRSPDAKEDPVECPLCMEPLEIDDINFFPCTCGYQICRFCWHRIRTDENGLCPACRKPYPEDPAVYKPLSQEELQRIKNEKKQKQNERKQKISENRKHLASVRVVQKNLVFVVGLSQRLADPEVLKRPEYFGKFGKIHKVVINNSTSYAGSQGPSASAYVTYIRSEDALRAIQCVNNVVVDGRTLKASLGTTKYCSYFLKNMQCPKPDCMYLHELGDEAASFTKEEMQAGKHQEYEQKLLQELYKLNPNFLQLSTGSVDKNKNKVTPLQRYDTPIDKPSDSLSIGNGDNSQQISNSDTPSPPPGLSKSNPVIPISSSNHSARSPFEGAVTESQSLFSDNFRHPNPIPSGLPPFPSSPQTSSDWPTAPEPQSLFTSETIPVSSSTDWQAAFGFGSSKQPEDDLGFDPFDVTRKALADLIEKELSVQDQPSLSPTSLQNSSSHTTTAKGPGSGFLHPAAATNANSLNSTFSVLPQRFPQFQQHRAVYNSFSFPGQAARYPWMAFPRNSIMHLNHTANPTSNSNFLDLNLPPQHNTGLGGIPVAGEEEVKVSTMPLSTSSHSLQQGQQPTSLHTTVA
In short: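 Probe: STP-alkyne, 0.1 mM, 1 h RT, after fragment pretreatment of lysate (esters 50 μM; guanidinylators 100 μM). Tags: light = compound, heavy = DMSO, via CuAAC. Replicates averaged if SD <60% of mean; otherwise lowest ratio used when any R <4.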

PLIN3 Perilipin-3 = molecular target: T2, PLIN3 Perilipin-3 (Homo sapiens, UniProt O60664); test: competitive isoTOP-ABPP; format: binding; set-up: key to isoTOP-ABPP reactivity ratio at lysine O60664_K257 / isoTOP-ABPP reactivity ratio at lysine O60664_K140: R = MS1 peak area ratio, DMSO (heavy) / compound-treated (light); capped at 20; conditions: for isoTOP-ABPP ratio (R) at liganded lysine O60664_K140 / isoTOP-ABPP ratio (R) at liganded lysine O60664_K257: sol, 231; for isoTOP-ABPP ratio, lysine O60664_K257: 50 uM_231_sol_in vitro
T2 construct: isoTOP-ABPP experiments performed in cell lysates (in vitro); endogenous in cells; host or cells: MDA-MB-231 soluble lysate
T2 sequence (O60664 1-434): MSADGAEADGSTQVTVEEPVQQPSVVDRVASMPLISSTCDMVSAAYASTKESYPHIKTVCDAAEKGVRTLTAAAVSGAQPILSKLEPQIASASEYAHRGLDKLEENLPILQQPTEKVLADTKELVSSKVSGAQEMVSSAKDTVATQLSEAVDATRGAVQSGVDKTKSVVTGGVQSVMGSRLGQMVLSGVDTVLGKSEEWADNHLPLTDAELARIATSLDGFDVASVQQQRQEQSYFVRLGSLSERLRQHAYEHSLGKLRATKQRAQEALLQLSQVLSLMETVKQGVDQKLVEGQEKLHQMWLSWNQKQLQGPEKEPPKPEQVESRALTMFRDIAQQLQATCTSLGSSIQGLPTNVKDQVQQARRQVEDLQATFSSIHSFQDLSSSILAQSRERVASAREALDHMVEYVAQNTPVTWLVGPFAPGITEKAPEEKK
Experimental: In vitro covalent fragment treatment for isoTOP-ABPP. All compounds were made up as solutions in DMSO (100×) and were used at a final concentration of 50 μM for activated esters and 100 μM for guanidinylating agents. For each profiling sample, 0.5 ml of lysate was treated with 5 μl of the 100× compound stock solution or 5 μl of DMSO. Samples were treated with activated esters for
STP-alkyne labeling and click chemistry. For concentration-dependent reactivity measurements by isoTOP-ABPP, 0.5 ml proteome aliquots were treated at ambient temperature with 1 mM STP-alkyne 1 (5 μl of 100 mM stock in DMSO) and 0.1 mM STP alkyne 1 (5 μl of 10 mM stock in DMSO), respectively. For competitive isoTOP-ABPP, after in vitro fragment treatment (detailed above), the samples were labeled for 1 h at ambient temperature with 0.1 mM STP-alkyne 1 (5 μl of 10 mM stock in DMSO). Samples were conjugated by copper-mediated azide-alkyne cycloaddition (CuAAC) to either the light (1 mM STP-alkyne or fragment treated) or heavy (0.1 mM STP-alkyne or DMSO treated) TEV tags (10 μl of 5 mM stocks in DMSO, final concentration=100 μM) using tris(2-carboxyethyl)phosphine hydrochloride
R value calculation and processing. The ratios of light and heavy MS1 peaks for each unique peptide were quantified with a CIMAGE software using default parameters (3 MS1 acquisitions per peak and signal to noise threshold set to 2.5). For reactivity measurements by isoTOP-ABPP, the R value was calculated from the ratio of MS1 peak areas, comparing the 1 mM STP alkyne sample (light TEV tag) with the 0.1 mM STP alkyne sample (heavy TEV tag). For competitive isoTOP-ABPP, the R value was calculated from the ratio of MS1 peak areas, comparing the DMSO treated sample (heavy TEV tag) with the compound treated sample (light TEV tag). […] Ratios for unique peptide entries are calculated for each experiment; overlapping peptides with the same modified lysine (for example, different charge states, MudPIT chromatographic steps or tryptic termini) are grouped together and the median ratio is reported as the final ratio (R). The peptide ratios reported by CIMAGE were further filtered to ensure the removal or correction of low-quality ratios in each individual data set. The quality filters applied were the following: removal of half tryptic peptides; for ratios with high standard deviations from the median (90% of the median or above) the lowest ratio was taken instead of the median; removal of peptides with R=20 and only a single MS2 event triggered during the elution of the parent ion; manual annotation of all the peptides with ratios of 20, removing any peptides with low quality elution profiles that remained after the previous curation steps (only done for competitive isoTOP-ABPP).
Cross-data processing for fragment screening. For compound treated samples, biological replicates of the same condition were averaged, if the standard deviation was below 60% of the mean; otherwise, for lysines with at least one R value <4 for a particular compound, the lowest value of the ratio set was taken. For lysines, where all R values for a particular compound were ≥4, the average was reported. For peptides containing several possible modified lysines, the lysine with the highest number of quantification events was used for analysis and the remaining, redundant peptides were reported as alternative modification sites. Peptides included in the aggregate dataset (those used for further bioinformatics and statistical analyses) were required to have been quantified in 2 experiments for competitive isoTOP-ABPP. Lysines were categorized as liganded, if they had at least one ratio R≥4 (hit fragments). For liganded lysines with R=20 for all liganding events, lysines were required to have been quantified with R=20 in two separate experiments and were further required to have been quantified with R<20 in one additional experiment.

Row | Compound | isoTOP-ABPP ratio (R) at liganded lysine O95628_K134 ([1]; 50 uM, in vitro) | isoTOP-ABPP ratio (R) at liganded lysine O60664_K257 (PLIN3 Perilipin-3; 50 uM, in vitro) | isoTOP-ABPP reactivity ratio at lysine O95628_K134 ([1]; 50 uM, 231 sol, in vitro) | isoTOP-ABPP reactivity ratio at lysine O60664_K140 (PLIN3 Perilipin-3; 50 uM, 231 sol, in vitro) | also measured
1 | O=C(Oc1ccc([N+](=O)[O-])cc1[N+](=O)[O-])c1ccc2ccccc2n1 [fragment 35, 2,4-Dinitrophenyl quinoline-2-carboxylate] | 1.3 | 1.2 |  |  | isoTOP-ABPP ratio (R) at liganded lysine O60664_K140 (PLIN3 Perilipin-3; 50 uM, in vitro): 1.1
2 | O=C(Oc1c(F)c(F)c(F)c(F)c1F)C1CCN(C(=O)OCc2ccccc2)CC1 [fragment 24, 1-Benzyl 4-(pentafluorophenyl) piperidine-1,4-dicarboxylate] |  |  | 1.0 | 1.7 | 
3 | O=C(Oc1c(F)c(F)c(F)c(F)c1F)C(c1ccccc1)c1ccccc1 [fragment 20, Pentafluorophenyl 2,2-diphenylacetate] |  |  |  |  | R value (DMSO/fragment) for probe 1 labeling ([1]; O95628_K134, 50 uM, 231 sol, in vitro): 0.9; R value (DMSO/fragment) for probe 1 labeling (PLIN3 Perilipin-3; O60664_K257, 50 uM, 231 sol, in vitro): 2.5
4 | CC(C)(C)OC(=O)N=C(NC(=O)OC(C)(C)C)n1cccn1 [fragment 50, reference compound] |  |  |  |  | isoTOP-ABPP ratio, lysine O95628_K134 ([1]; 100 uM_231_sol_in vitro): 1.7; isoTOP-ABPP ratio, lysine O60664_K140 (PLIN3 Perilipin-3; 100 uM_231_sol_in vitro): 1.8
5 | O=C(Oc1ccc([N+](=O)[O-])cc1[N+](=O)[O-])c1ccccc1Nc1cccc(C(F)(F)F)c1 [fragment 40, 2,4-Dinitrophenyl 2-((3-(trifluoromethyl)phenyl)amino)benzoate] | 1.1 | 1.6 |  |  | 
6 | N#Cc1ccc(C(=O)Oc2ccc([N+](=O)[O-])cc2[N+](=O)[O-])cc1 [fragment 44, 2,4-Dinitrophenyl 4-cyanobenzoate] |  |  |  |  | isoTOP-ABPP ratio, lysine O95628_K134 ([1]; 50 uM_231_sol_in vitro): 2.0; isoTOP-ABPP ratio, lysine O60664_K257 (PLIN3 Perilipin-3): 1.9
7 | O=C(Oc1ccc([N+](=O)[O-])cc1[N+](=O)[O-])C(c1ccccc1)c1ccccc1 [fragment 30, 2,4-Dinitrophenyl 2,2-diphenylacetate] |  |  | 1.2 | 4.5 | isoTOP-ABPP reactivity ratio at lysine O60664_K257 (PLIN3 Perilipin-3; 50 uM, 231 sol, in vitro): 2.9
8 | O=C(ON1C(=O)CCC1=O)c1cc(C(F)(F)F)cc(C(F)(F)F)c1 [fragment 46, 3,5-Bis(trifluoromethyl)benzoic acid NHS ester] |  |  |  |  | isoTOP-ABPP ratio, lysine O95628_K134 ([1]; 50 uM_231_sol_in vitro): 5.2; isoTOP-ABPP ratio, lysine O60664_K257 (PLIN3 Perilipin-3): 0.6
9 | O=C(Oc1ccc([N+](=O)[O-])cc1[N+](=O)[O-])c1ccc(Oc2ccccc2)cc1 [fragment 39, 2,4-Dinitrophenyl 4-phenoxybenzoate] | 1.0 | 2.2 |  |  | isoTOP-ABPP ratio (R) at liganded lysine O60664_K140 (PLIN3 Perilipin-3; 50 uM, in vitro): 2.0
10 | O=C(Oc1ccc([N+](=O)[O-])cc1[N+](=O)[O-])c1ccc(-c2ccccc2)cc1 [fragment 37, 2,4-Dinitrophenyl [1,1′-biphenyl]-4-carboxylate] | 1.0 | 3.5 |  |  | 
11 | COc1cc(CCC(=O)Oc2ccc([N+](=O)[O-])cc2[N+](=O)[O-])cc(OC)c1OC [fragment 33, 2,4-Dinitrophenyl 3-(3,4,5-trimethoxyphenyl)propanoate] |  |  | 1.4 | 1.1 | isoTOP-ABPP reactivity ratio at lysine O60664_K257 (PLIN3 Perilipin-3; 50 uM, 231 sol, in vitro): 2.2
12 | CCn1cc(C(=O)Oc2c(F)c(F)c(F)c(F)c2F)c(=O)c2ccc(C)nc21 [fragment 28, Pentafluorophenyl 1-ethyl-7-methyl-4-oxo-1,4-dihydro-1,8-naphthyridine-3-carboxylate] |  |  | 1.0 | 1.2 | isoTOP-ABPP reactivity ratio at lysine O60664_K257 (PLIN3 Perilipin-3; 50 uM, 231 sol, in vitro): 1.1
